Results as given in ChEMBL document CHEMBL1136389, “Structure-activity relationship of a novel class of naphthyl amide KATP channel openers” (Bioorg Med Chem Lett, 2003).

Columns and labels:
[1] = system: Rattus norvegicus; assay: In vivo concentration required for the 10% reduction of mean arterial pressure in anesthetized obstructed male rat, administered intravenously at a dose of 50 nM/Kg; type: functional, Artery
[2] = Selectivity ratio for the reduction of mean arterial pressure to that of unstable […] in anesthetized obstructed male rat; type: functional, Artery
[3] = system: Rattus norvegicus; assay: In vivo concentration required for the inhibition of unstable contraction in anesthetized obstructed male rat, administered intravenously at a dose of 30 nM/Kg; type: functional
[4] = system: Rattus norvegicus; assay: In vivo concentration required for the reduction of mean arterial pressure in anesthetized obstructed male rat, administered intravenously at a dose of 50 nM/Kg; type: functional, Artery

`CC(=O)Nc1c(C(O)(C(F)(F)F)C(F)(F)F)ccc2ccccc12` gave an ED10 [1] of 0.05 µM/kg, a Selectivity ratio [2] of 1.7 and an ED35 [3] of 0.03 µM/kg.
Molecule `CCc1cc(C#N)ccc1Nc1c(N[C@H](C)C(C)(C)C)c(=O)c1=O` has a Selectivity ratio [2] of 1.2, an ED10 [4] of 0.12 µM/kg and an ED35 [3] of 0.1 µM/kg.
In the case of `C[C@](O)(C(=O)Nc1ccc(C(=O)c2ccccc2)cc1)C(F)(F)F` [ZD-6169], the Selectivity ratio [2] is reported as 1.1, the ED10 [4] is reported as 1.5 µM/kg and the ED35 [3] is reported as 1.4 µM/kg.
